ChEMBL document CHEMBL1201862, “PubChem BioAssay data set” (2004)
Calls of active or inactive are those of the source.

Key:
[1] = target: Metabotropic glutamate receptor 7 (Homo sapiens, UniProt Q14831); assay: mGlu7 positive allosteric modulators, dose response, cell-based, calcium mobilization, Galpha15 (AID 743384); assay type: functional
[2] = target: Induced myeloid leukemia cell differentiation protein Mcl-1 (Homo sapiens, UniProt Q07820); assay type: functional
Genome polyprotein = Genome polyprotein (dengue virus type 2, UniProt P29990); assay: Dengue-2 NS5 methyltransferase inhibitors, primary screen, biochemical, confirmation dose response (AID 588689); assay type: functional
Caspase-6 = target: T1, Caspase-6 (Homo sapiens, UniProt P55212); assay: human caspase-6 inhibitors, dose response, biochemical, VEID-R110 fluorescence, cherry-pick (AID 720632)
T1 sequence (P55212 whole entry): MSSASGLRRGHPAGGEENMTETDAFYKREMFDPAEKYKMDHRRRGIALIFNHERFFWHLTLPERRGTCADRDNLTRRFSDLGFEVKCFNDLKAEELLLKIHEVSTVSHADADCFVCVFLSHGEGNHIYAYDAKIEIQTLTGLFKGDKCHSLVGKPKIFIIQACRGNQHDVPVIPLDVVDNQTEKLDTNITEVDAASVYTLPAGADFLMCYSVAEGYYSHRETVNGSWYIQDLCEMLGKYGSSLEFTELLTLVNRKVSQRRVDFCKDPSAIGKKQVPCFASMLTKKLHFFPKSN

[3] = target: Tyrosyl-DNA phosphodiesterase 2 (Homo sapiens, UniProt O95551); assay: human TDP2 enzyme inhibitors, dose response, biochemical, epi absorbance, IC50 (AID 743297)
[4] = target: Glutathione-S-transferase (Schistosoma japonicum, UniProt Q26513); assay: biotin-GST/anti-GST TR-FRET signal inhibitors, dose response, artefact control for Vif-APOBEC3G degradation inhibitor project, biochemical (AID 1117362); assay type: functional
[5] = target: RNA-editing ligase 1, mitochondrial (Trypanosoma brucei brucei, UniProt P86926); assay: TbREL1 ligase inhibitors, dose response, biochemical, fluorescence, Trypanosoma brucei (AID 1117295); assay type: functional
[6] = test system: Streptococcus sp. 'group A'; assay: growth inhibition of control SK(-) GAS strain, dose response, counter-screen for streptokinase expression inhibitor project, luminescence, kanamycin, BacTiterGlo, confirmation (AID 1900); assay type: functional, organism-based
[7] = target: Voltage-gated inwardly rectifying potassium channel KCNH2 (Homo sapiens, UniProt Q12809); assay: hERG protection from proarrhythmic block, potency, dose response, cell-based, thallium flux (AID 2121); assay type: ADME
Streptococcus = assay: Group A Streptococcus viability loss, dose response, counter-screen for streptokinase expression inhibitor project, luminescence, BacTiterGlo (AID 1915); assay type: functional, organism-based;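 also: potency for reduction of bacterial viability or growth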
[8] = Dose-response inhibition of insulin secretion in a rat insulinoma line at 5 mM glucose (AID 1117331); assay type: functional, cell-based; details: INS-1E
[9] = target: Luciferin 4-monooxygenase (Photinus pyralis, UniProt P08659); assay: Counter Screen for Luciferase-based Assay Positives. [Related pubchem assays: 620, 618, 411 ]
[10] = target: Protein-tyrosine kinase 2-beta (Homo sapiens, UniProt Q14289);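 also: potency of inhibitors of PYK2 kinase phosphorylation of poly-GT substrate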
HT-1080 = assay: cytotoxicity in HT1080 fibrosarcoma cells, cell-based, fluorescence readout (AID 620); assay type: functional; details: Homo sapiens
Estrogen receptor = target: T2, Estrogen receptor (Homo sapiens, UniProt P03372); assay: potentiators of ERα–SRC-1 coactivator binding, dose response, biochemical, TR-FRET, ERα LBD (AID 737)
T2 sequence (P03372 whole entry): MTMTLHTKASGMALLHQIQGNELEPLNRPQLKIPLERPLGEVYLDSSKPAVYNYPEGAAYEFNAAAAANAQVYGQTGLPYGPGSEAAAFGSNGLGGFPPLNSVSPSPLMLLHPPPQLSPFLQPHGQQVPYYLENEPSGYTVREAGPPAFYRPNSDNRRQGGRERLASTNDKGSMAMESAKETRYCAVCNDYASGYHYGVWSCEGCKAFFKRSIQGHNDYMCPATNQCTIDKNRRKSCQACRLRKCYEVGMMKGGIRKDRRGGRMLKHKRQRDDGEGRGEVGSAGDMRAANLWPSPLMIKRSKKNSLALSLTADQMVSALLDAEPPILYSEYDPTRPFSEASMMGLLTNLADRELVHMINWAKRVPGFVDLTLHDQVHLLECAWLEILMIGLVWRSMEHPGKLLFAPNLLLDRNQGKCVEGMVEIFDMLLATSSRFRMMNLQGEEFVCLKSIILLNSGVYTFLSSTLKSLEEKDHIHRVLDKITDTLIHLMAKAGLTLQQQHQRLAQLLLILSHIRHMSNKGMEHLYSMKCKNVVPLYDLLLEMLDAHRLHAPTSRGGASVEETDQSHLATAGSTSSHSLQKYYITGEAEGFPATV

[11] = Luminescence-based cell-based high throughput dose response assay to identify activators of the DAF-12 from the parasite S. stercoralis (ssDAF-12).; assay type: functional
[12] = target: T3, Oxysterols receptor LXR-beta (Homo sapiens, UniProt P55055); assay: LXR agonists, Gal4 luciferase reporter, dose response, counter-screen for ssDAF-12 agonist project, cell-based, luminescence, HEK293, S. stercoralis campaign (AID 720737); assay type: functional; details: read-out: IC50 (the source's name)
T3 sequence (P55055 whole entry): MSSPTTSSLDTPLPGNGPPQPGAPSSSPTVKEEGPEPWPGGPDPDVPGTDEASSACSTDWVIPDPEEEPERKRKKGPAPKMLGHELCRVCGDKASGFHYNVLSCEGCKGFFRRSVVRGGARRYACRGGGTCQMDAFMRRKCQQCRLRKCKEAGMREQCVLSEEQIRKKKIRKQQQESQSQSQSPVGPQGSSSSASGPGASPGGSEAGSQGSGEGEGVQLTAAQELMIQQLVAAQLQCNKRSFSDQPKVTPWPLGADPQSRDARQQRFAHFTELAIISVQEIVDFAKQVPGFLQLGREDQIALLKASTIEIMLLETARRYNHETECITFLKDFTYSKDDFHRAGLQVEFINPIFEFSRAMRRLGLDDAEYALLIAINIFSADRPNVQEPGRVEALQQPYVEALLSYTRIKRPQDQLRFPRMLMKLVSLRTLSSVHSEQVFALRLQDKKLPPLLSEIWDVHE

[13] = target: T3, Oxysterols receptor LXR-beta; assay type: functional, cell-based
Galanin receptor type 2 = Galanin receptor type 2 (Homo sapiens, UniProt O43603); assay: Dose Response cell-based high-throughput screening assay to identify antagonists of galanin receptor 2 (GALR2). [Related pubchem assays: 828, 866 ]; assay type: functional
[14] = HeLa 2N DNA content increase, dose response, cell-based, IC50 (AID 1117349); assay type: functional
[15] = HeLa 4N DNA content increase, dose response, cell-based, IC50 (AID 1117351); assay type: functional
[16] = growth suppression of PTEN-null colon cells, dose response, cell-based, HCT116 PTEN knockout (AID 1047); assay type: functional;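 also: HCT116 colon tumor cells with PTEN knocked out; cells exposed to compound for 60 hours before readout; potency for loss of cell viability measured by luminescence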
[17] = growth suppression of beta-catenin-knockout colon cells, dose response, cell-based, HCT116, human colon tumor (AID 1045); assay type: functional;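 also: HCT116 colon tumor cells with beta catenin knocked out; cells exposed to compound for 60 hours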
[18] = target: Heat shock protein HSP 90-alpha (Homo sapiens, UniProt P07900); assay type: functional, organism-based
[19] = Concentration-dependent survival of SW480 colon cancer line, luminescence detection with CellTiter-Glo, half-maximal inhibitory concentration (AID 1117338); assay type: functional
[20] = RKO cell viability reduction, dose response, CellTiter-Glo luminescence (AID 1117322); assay type: functional
[21] = cytotoxicity toward HCT116 cells – cell-based, CellTiter-Glo luminescence, IC50, dose response (AID 1117332); assay type: functional; details: HCT-116
[22] = SNU-C1 cell viability reduction, dose response, CellTiter-Glo luminescence (AID 1117323); assay type: functional, cell-based
[23] = half-maximal inhibitory concentration for glucagon-like peptide-1 release, STC-1 cell line, dose-response (AID 1117345); assay type: functional, cell-based
[24] = cytotoxicity toward Colo320 cells – cell-based, CellTiter-Glo luminescence, IC50, dose response (AID 1117334); assay type: functional; details: COLO 320
[25] = cytotoxicity toward HT-29 cells – cell-based, CellTiter-Glo luminescence, IC50, dose response (AID 1117330); assay type: functional
[26] = CellTiter-Glo luminescent dose response of DLD-1 viability loss (AID 1117352); assay type: functional
[27] = Glucagon-like peptide 1 release potency, NCI-H716 cell line, dose-response, half-maximal inhibitory concentration (AID 1117344); assay type: functional, cell-based

Sequence of Tyrosyl-DNA phosphodiesterase 2 (O95551 whole entry): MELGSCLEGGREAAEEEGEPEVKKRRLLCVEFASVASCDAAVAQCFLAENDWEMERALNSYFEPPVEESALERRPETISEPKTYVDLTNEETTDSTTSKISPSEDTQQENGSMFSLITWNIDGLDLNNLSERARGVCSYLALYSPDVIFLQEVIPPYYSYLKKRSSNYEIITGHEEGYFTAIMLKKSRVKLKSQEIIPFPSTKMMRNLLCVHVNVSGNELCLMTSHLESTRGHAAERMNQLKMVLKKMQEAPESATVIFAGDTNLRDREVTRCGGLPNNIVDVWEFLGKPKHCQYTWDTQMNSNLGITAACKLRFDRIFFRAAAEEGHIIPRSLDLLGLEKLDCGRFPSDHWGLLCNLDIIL
Sequence of Voltage-gated inwardly rectifying potassium channel KCNH2 (Q12809 whole entry): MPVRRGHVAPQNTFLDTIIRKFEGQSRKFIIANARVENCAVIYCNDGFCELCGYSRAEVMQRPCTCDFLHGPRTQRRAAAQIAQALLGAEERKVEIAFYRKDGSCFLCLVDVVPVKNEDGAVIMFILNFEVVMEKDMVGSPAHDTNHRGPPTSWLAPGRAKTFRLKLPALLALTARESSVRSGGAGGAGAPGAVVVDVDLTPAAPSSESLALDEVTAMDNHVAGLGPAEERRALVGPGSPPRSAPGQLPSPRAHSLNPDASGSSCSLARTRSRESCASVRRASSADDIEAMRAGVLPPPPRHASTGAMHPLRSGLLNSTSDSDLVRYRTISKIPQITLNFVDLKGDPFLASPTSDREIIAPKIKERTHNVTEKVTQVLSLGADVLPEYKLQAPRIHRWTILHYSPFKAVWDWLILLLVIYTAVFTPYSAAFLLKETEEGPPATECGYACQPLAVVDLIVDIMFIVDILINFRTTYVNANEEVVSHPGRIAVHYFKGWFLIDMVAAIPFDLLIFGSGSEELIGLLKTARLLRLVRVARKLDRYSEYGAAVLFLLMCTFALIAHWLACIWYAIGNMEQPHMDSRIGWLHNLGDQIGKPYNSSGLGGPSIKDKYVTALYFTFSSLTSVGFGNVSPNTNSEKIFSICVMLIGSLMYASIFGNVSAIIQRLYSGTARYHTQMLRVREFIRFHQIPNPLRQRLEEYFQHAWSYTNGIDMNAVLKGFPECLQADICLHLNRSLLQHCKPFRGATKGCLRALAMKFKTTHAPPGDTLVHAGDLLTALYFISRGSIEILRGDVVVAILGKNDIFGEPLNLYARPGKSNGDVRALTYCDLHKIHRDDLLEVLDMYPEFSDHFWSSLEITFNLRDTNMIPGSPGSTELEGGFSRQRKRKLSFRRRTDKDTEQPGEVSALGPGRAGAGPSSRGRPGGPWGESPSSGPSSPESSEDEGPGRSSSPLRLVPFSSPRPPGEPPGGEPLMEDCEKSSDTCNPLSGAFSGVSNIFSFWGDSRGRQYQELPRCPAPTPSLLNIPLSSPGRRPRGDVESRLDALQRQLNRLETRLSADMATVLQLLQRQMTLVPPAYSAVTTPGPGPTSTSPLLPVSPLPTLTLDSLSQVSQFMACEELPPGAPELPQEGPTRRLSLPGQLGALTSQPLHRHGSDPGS
Sequence of Luciferin 4-monooxygenase (P08659 whole entry): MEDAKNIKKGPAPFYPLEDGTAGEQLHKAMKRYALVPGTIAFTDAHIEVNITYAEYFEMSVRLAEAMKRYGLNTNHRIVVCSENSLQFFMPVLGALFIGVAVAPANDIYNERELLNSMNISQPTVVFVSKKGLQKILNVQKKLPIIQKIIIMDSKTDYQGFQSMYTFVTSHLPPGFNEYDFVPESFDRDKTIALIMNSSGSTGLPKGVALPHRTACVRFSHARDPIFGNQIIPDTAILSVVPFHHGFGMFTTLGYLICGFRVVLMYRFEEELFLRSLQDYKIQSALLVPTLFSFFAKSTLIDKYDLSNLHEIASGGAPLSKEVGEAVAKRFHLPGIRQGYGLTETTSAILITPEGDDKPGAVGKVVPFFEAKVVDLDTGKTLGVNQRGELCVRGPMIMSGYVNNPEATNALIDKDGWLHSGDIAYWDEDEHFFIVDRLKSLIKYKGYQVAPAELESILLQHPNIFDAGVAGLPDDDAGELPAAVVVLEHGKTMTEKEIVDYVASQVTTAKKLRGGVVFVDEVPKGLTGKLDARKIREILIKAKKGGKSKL
Sequence of Induced myeloid leukemia cell differentiation protein Mcl-1 (Q07820 whole entry): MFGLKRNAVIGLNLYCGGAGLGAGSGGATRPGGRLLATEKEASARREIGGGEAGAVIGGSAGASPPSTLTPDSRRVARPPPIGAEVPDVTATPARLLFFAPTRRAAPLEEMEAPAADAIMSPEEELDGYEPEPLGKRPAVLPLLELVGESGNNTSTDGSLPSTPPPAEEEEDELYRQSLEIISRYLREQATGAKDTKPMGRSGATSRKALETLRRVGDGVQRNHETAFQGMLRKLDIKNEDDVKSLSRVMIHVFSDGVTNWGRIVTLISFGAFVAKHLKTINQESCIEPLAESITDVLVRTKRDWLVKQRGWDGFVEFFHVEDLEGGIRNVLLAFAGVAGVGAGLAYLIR
Sequence of Glutathione-S-transferase (Q26513 whole entry): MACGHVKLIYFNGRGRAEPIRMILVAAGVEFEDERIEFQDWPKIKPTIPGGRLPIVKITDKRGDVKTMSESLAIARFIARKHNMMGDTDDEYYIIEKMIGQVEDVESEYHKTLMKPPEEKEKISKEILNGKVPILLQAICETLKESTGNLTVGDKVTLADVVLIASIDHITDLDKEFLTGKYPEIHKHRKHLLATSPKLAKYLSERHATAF
Sequence of Metabotropic glutamate receptor 7 (Q14831 whole entry): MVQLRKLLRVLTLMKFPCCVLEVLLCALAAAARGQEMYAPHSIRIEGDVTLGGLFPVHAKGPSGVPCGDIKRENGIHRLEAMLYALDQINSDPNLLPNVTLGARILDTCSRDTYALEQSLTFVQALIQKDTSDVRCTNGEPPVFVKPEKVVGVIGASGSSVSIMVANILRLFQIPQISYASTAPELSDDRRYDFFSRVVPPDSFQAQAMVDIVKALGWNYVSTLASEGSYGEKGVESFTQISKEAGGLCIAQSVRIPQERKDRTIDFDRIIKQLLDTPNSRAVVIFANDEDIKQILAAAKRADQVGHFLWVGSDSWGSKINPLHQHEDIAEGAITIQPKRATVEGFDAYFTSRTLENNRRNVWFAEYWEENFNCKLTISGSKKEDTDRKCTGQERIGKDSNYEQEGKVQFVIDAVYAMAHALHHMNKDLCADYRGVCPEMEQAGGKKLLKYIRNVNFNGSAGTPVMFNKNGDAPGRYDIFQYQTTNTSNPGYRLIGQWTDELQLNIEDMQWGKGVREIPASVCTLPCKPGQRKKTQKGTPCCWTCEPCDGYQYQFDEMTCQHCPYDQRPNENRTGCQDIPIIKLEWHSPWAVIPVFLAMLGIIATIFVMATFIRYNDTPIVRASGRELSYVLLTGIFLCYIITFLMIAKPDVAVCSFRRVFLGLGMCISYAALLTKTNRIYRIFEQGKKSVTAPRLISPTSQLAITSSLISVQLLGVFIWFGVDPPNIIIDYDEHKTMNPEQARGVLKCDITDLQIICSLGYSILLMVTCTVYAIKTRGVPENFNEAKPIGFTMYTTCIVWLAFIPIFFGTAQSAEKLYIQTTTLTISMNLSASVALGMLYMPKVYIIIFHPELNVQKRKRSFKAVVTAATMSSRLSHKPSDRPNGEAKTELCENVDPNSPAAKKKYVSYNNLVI
Sequence of Protein-tyrosine kinase 2-beta (Q14289 whole entry): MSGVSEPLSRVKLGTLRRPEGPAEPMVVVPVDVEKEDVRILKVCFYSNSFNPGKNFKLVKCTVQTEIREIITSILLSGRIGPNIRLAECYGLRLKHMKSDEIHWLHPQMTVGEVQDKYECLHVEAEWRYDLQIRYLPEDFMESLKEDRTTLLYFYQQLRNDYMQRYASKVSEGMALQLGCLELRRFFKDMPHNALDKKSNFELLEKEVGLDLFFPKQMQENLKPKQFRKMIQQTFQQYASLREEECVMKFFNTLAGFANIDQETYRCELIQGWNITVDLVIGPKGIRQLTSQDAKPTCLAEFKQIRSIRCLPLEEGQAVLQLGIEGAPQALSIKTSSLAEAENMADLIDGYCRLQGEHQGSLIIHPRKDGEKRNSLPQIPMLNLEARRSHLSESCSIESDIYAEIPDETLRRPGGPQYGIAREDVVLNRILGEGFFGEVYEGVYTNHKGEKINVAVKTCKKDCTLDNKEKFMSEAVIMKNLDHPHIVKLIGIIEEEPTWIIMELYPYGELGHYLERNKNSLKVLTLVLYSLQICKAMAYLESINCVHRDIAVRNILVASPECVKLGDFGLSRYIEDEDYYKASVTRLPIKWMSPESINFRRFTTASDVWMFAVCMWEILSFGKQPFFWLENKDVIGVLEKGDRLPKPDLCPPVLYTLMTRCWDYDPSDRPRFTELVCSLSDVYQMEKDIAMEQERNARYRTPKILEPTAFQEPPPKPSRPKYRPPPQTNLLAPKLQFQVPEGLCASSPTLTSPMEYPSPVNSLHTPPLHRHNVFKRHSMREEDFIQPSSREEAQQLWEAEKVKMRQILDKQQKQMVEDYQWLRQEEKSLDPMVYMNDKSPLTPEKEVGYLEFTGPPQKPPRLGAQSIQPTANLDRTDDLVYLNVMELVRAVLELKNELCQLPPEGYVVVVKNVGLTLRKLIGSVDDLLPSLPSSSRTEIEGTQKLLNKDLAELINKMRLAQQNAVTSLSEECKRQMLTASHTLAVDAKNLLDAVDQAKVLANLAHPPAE
Sequence of RNA-editing ligase 1, mitochondrial (P86926 whole entry): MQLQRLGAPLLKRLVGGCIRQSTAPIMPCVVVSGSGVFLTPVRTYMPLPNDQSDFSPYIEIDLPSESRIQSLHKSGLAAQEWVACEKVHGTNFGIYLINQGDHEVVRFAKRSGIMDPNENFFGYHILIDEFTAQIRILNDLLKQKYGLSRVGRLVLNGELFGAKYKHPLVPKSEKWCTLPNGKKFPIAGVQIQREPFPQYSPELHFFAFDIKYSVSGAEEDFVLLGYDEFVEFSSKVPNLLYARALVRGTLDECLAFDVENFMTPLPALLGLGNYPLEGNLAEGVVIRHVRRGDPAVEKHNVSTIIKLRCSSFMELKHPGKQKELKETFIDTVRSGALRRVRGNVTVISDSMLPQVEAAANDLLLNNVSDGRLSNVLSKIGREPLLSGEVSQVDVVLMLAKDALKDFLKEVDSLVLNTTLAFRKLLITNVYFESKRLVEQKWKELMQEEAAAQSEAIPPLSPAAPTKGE

Q: Which EC50 [1] does the source give for `CC(=O)Nc1ccc(SCC(=O)c2cc(C)n(-c3ccc(S(N)(=O)=O)cc3)c2C)cc1` here?
A: 10 µM (active)

Q: Which IC50 [2] does the source give for `O=C(NCCCO)c1ccc2nc(-c3ccco3)c(-c3ccco3)nc2c1` here?
A: 3.45 µM (not active)

Q: And the IC50 (Genome polyprotein)?
A: 86.2 µM (active)

Q: And the AC50 (Caspase-6)?
A: 13.1 µM (active)

Q: What about the IC50 [3] of the same compound?
A: > 128 µM (inactive)

Q: And the IC50 [4]?
A: > 100 µM (active)

Q: What about the IC50 [5] of the same compound?
A: 28.4 µM (inactive)

Q: Which EC50 [6] does the source give for `CCOC(=O)C1=C(Cc2ccc(C)cc2)C(=O)c2ccccc2C1=O` here?
A: 6.54 µM (active)

Q: What about the EC50 [7] of the same compound?
A: 4.1 µM (active)

Q: What about the EC50 (Streptococcus) of the same compound?
A: 6.91 µM (active)

Q: And the IC50 [3]?
A: > 128 µM (inactive)

Q: Which IC50 [8] does the source give for `Nc1cc(N2CCCCC2)nc(N)[n+]1[O-]` [MINOXIDIL] here?
A: > 33.3 µM (inactive)

Q: With `O=C1C(c2ccnc3ccccc23)=C(O)c2ccccc21` as the compound, how does the EC50 [9] read?
A: 0.78 µM (active)

Q: And the IC50 [10]?
A: 3.11 µM (active)

Q: What about the EC50 (HT-1080) of the same compound?
A: > 50 µM (not active)

Q: What about the EC50 (Estrogen receptor) of the same compound?
A: 6.74 µM (active)

Q: And the IC50 [11]?
A: > 67.5 µM (inactive)

Q: And the EC50 [12]?
A: > 67.5 µM (inactive)

Q: What about the EC50 [13] of the same compound?
A: > 67.5 µM (inactive)

Q: And the EC50 (cells)?
A: > 67.5 µM (inactive)

Q: For `c1ccc2c3nc[nH]c(NCC4CCCO4)c-3nc2c1` (stereo not given), which IC50 (Galanin receptor type 2) is on record?
A: > 42 µM (not active)

Q: Which results are given for `CC(C)(C)C(=O)OCOP(=O)(COCCn1cnc2c(N)ncnc21)OCOC(=O)C(C)(C)C` [ADEFOVIR DIPIVOXIL]?
A: IC50 [14]: > 10 µM (inactive); IC50 [15]: > 10 µM (inactive)

Q: For `Oc1ccc(Cl)cc1Cc1cc(Cl)ccc1O` [DICHLOROPHEN], which EC50 [16] is on record?
A: 15.7 µM (active)

Q: And the EC50 [17]?
A: 16.4 µM (active)

Q: What about the AC50 [18] of the same compound?
A: 8 µM (active)

Q: And the IC50 [19]?
A: 2.5 µM (active)

Q: What about the IC50 [20] of the same compound?
A: 1.93 µM (active)

Q: And the IC50 [21]?
A: 1.55 µM (active)

Q: And the IC50 [22]?
A: 0.546 µM (active)

Q: What about the IC50 [23] of the same compound?
A: > 40 µM (inactive)

Q: What about the IC50 [24] of the same compound?
A: 1.21 µM (active)

Q: And the IC50 [25]?
A: 4.69 µM (active)

Q: What about the IC50 [26] of the same compound?
A: 0.862 µM (active)

Q: And the IC50 [27]?
A: 15.6 µM (inactive)
